This is an account of results in PubChem BioAssay (NCI).

“And” between values parts separate entries of the source, which are not always exact repeats. Identical values can stand only once.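 Where inhibition never reached the appropriate level, the endpoint shown equals the highest concentration tested. Otherwise, values were interpolated linearly from a five-concentration, 48-hour dose response in 96-well plates. GI50 marks 50% less growth. TGI: total growth inhibition.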

Among the test systems are EKVX NSCLC; KM12 colon; MCF7 breast; NCI-H226 lung; HOP-92 NSCLC; COLO 205 colon; TK-10 renal; OVCAR-4 ovarian; OVCAR-5 ovarian; HL-60(TB) leukemia.
What all share (assay): inhibition of tumour cell growth, NCI panel, 48 h

As to `O=C(c1cccc(O)c1O)c1cn(Cc2ccc(F)cc2)c2cccc(O)c12`, the GI50 in the assay with EKVX NSCLC was 9.3 µM; in the assay on KM12 colon it was 5.46 µM; with MCF7 breast, 2.14 µM; with NCI-H226 lung, 15.9 µM; in the assay on HOP-92 NSCLC it was 0.361 µM; in the assay with COLO 205 colon, 2.77 µM. The GI50 in the assay on TK-10 renal is 7.01 µM; in the assay with OVCAR-4 ovarian, 3.13 µM; in the assay with OVCAR-5 ovarian, 9.04 µM; with HL-60(TB) leukemia it was 1.36 µM. For the same compound, the TGI in the assay with EKVX NSCLC is above 54.4 µM; in the assay on KM12 colon, 19.4 µM; in the assay with MCF7 breast, 13.1 µM; in the assay with NCI-H226 lung, 43.8 µM; in the assay with HOP-92 NSCLC it was 7.44 µM; in the assay on COLO 205 colon, 10.7 µM. For the same compound, the TGI in the assay on TK-10 renal was determined as 26.8 µM; in the assay on OVCAR-4 ovarian, 16.2 µM; with OVCAR-5 ovarian it was 26.4 µM; in the assay on HL-60(TB) leukemia, 6.93 µM.
In the case of `COc1ccc(OC)c(/C=C/C(=O)N/N=C/c2ccc(Cl)cc2)c1`, the GI50 is 0.704 µM with EKVX NSCLC; 0.0466 µM in the assay with KM12 colon; 0.0529 µM in the assay with MCF7 breast; 0.909 µM in the assay on NCI-H226 lung; 9.27 µM in the assay with HOP-92 NSCLC; 0.0935 µM with COLO 205 colon. For the same compound, the GI50 in the assay with TK-10 renal was 0.383 µM; in the assay on OVCAR-4 ovarian it was 1.41 µM; with OVCAR-5 ovarian, 15.3 µM; in the assay on HL-60(TB) leukemia it was 0.0785 µM. Besides, the TGI in the assay on EKVX NSCLC is above 100 µM; in the assay with KM12 colon it was above 29.1 µM; in the assay with MCF7 breast it was above 57 µM; in the assay on NCI-H226 lung, above 100 µM; with HOP-92 NSCLC, 75.2 µM; in the assay on COLO 205 colon, 0.599 µM. Also, the TGI is above 100 µM in the assay with TK-10 renal, above 100 µM with OVCAR-4 ovarian, above 100 µM with OVCAR-5 ovarian and 0.483 µM in the assay with HL-60(TB) leukemia.
Take `CCc1[nH]c(=O)nc(N)c1-c1ccc(N2CCCCC2)c([N+](=O)[O-])c1`: the TGI in the assay with EKVX NSCLC, with KM12 colon, in the assay with MCF7 breast, with NCI-H226 lung, with HOP-92 NSCLC and in the assay on COLO 205 colon was above 100 µM in each case. The TGI in the assay on TK-10 renal, in the assay on OVCAR-4 ovarian, in the assay on OVCAR-5 ovarian and in the assay with HL-60(TB) leukemia was above 100 µM each time.
As to `CCC1(O)C(=O)OCc2c1cc1n(c2=O)Cc2cc3ccc(C=O)cc3nc2-1` (configuration not stated), the GI50 is 15.1 µM in the assay on EKVX NSCLC; 4.83 µM in the assay with KM12 colon; 0.187 µM in the assay on MCF7 breast; 1.76 µM in the assay on NCI-H226 lung; 5.77 µM with COLO 205 colon; 20.8 µM in the assay on TK-10 renal. For the same compound, the GI50 in the assay on OVCAR-4 ovarian was 10.3 µM; in the assay with OVCAR-5 ovarian it was 10.5 µM. For the same compound, the TGI was 50 µM and > 100 µM in the assay on EKVX NSCLC; 29.7 µM and > 100 µM in the assay with KM12 colon; 50 µM and 10.6 µM with MCF7 breast; 13.9 µM and 7.4 µM in the assay with NCI-H226 lung; 42 µM and 84.4 µM with HOP-92 NSCLC; 12.5 µM and 31.3 µM with COLO 205 colon. In addition, the TGI in the assay with TK-10 renal was 50 µM and > 100 µM; with OVCAR-4 ovarian, 50 µM and 23.6 µM; in the assay with OVCAR-5 ovarian, 50 µM and 55.2 µM; with HL-60(TB) leukemia it was 5.99 µM.
For `Cc1cc(C)c(C(=O)CC(=O)c2cccnc2)c(C)c1`, the GI50 in the assay with EKVX NSCLC was 3.97 µM; in the assay on KM12 colon, 8.01 µM; with MCF7 breast it was 5.96 µM; with NCI-H226 lung, 7.34 µM; with HOP-92 NSCLC, 7.47 µM; in the assay with COLO 205 colon it was 8.01 µM. Moreover, the GI50 in the assay with TK-10 renal was 9.77 µM; in the assay on OVCAR-4 ovarian, 8.59 µM; in the assay on OVCAR-5 ovarian it was 9.84 µM; with HL-60(TB) leukemia it was 8.59 µM. Moreover, the TGI in the assay with EKVX NSCLC was 69.6 µM; in the assay with KM12 colon, above 100 µM; in the assay with MCF7 breast, above 100 µM; in the assay with NCI-H226 lung, 86.8 µM; in the assay with HOP-92 NSCLC it was 57 µM; in the assay with COLO 205 colon it was above 100 µM. Further, the TGI in the assay on TK-10 renal was above 100 µM; in the assay on OVCAR-4 ovarian, above 100 µM; with OVCAR-5 ovarian, above 100 µM; with HL-60(TB) leukemia, 31.7 µM.
For `COc1ccc2c(c1)C(=O)c1c-2n(CCCn2ccnc2)c(=O)c2ccccc12`, the GI50 in the assay with EKVX NSCLC is 1.51 µM; with KM12 colon it was 0.729 µM; in the assay on MCF7 breast it was 0.0241 µM; with NCI-H226 lung, 1.12 µM; in the assay on HOP-92 NSCLC, 1.03 µM; with COLO 205 colon, 0.579 µM. In addition, the GI50 in the assay on TK-10 renal is 2.09 µM; in the assay with OVCAR-4 ovarian it was 1.33 µM; in the assay on OVCAR-5 ovarian, 1.24 µM; in the assay with HL-60(TB) leukemia, 1.49 µM. The TGI with EKVX NSCLC is 11.9 µM; in the assay on KM12 colon, 3.78 µM; in the assay with MCF7 breast, 1.84 µM; in the assay on NCI-H226 lung, 5.58 µM; in the assay with HOP-92 NSCLC, above 23.2 µM; in the assay with COLO 205 colon, 14.3 µM. Moreover, the TGI in the assay on TK-10 renal is 15.4 µM; in the assay with OVCAR-4 ovarian it was above 100 µM; in the assay on OVCAR-5 ovarian, 3.92 µM; in the assay with HL-60(TB) leukemia, 18.4 µM.
Turning to `COc1ccc(C(=O)COc2cccc(/C=C3\COc4ccc5ccccc5c4C3=O)c2)cc1`, the GI50 with EKVX NSCLC was 4.26 µM; in the assay with KM12 colon, 3.11 µM; with MCF7 breast, 2.48 µM; with NCI-H226 lung it was 15.4 µM; in the assay with HOP-92 NSCLC, 0.786 µM; in the assay with COLO 205 colon, 16.9 µM. Further, the GI50 was 24.2 µM with TK-10 renal, 6.53 µM in the assay with OVCAR-4 ovarian, 12.9 µM with OVCAR-5 ovarian and 2.07 µM in the assay with HL-60(TB) leukemia. In addition, the TGI with EKVX NSCLC was above 100 µM; with KM12 colon, 24.6 µM; with MCF7 breast, above 100 µM; with NCI-H226 lung, above 100 µM; in the assay on HOP-92 NSCLC, 8.14 µM; in the assay with COLO 205 colon it was above 100 µM. Also, the TGI was above 100 µM in the assay with TK-10 renal, above 100 µM in the assay on OVCAR-4 ovarian, above 100 µM in the assay with OVCAR-5 ovarian and 6.83 µM with HL-60(TB) leukemia.
For `CC(=O)OC1CC(O)C23COC(O)C1(C)C2CC(O)C1(C)C3C(=O)C(O)C2(C)C(c3ccoc3)CC3OC321` (configuration not stated), the GI50 with EKVX NSCLC is 1.94 µM; in the assay on KM12 colon, below 0.01 µM; in the assay with MCF7 breast, above 100 µM; with NCI-H226 lung, below 0.0188 µM; in the assay with HOP-92 NSCLC it was 0.911 µM; with COLO 205 colon, below 0.01 µM. Besides, the GI50 in the assay on TK-10 renal is above 100 µM; in the assay with OVCAR-5 ovarian, above 36 µM; in the assay with HL-60(TB) leukemia, below 0.01 µM. In addition, the TGI is above 100 µM in the assay with EKVX NSCLC; above 100 µM in the assay on KM12 colon; above 100 µM in the assay with MCF7 breast; 18.4 µM in the assay on NCI-H226 lung; above 100 µM with HOP-92 NSCLC; above 100 µM in the assay with COLO 205 colon. Also, the TGI in the assay with TK-10 renal, in the assay with OVCAR-4 ovarian, in the assay on OVCAR-5 ovarian and with HL-60(TB) leukemia was above 100 µM each time.
